Assay results taken from patent publication US5525595A, “3- or 4-glycosyloxybenzopyran derivative and antiallergic agent containing the derivative as active ingredient” (priority 1993, dated 1996).

Key:
[1] = test system: homologous passive cutaneous anaphylaxis (PCA) reaction; experiment: Effect on homologous passive cutaneous anaphylaxis (PCA) reaction in rats; assay type: in vivo, rats (Male wistar rats); details: for inhibition in vivo at 100 mg/kg: Rattus norvegicus, 0.5 h, 100 mg/kg oral, 1 hour before antigen, rats, Table 3; for Inhibition (%) of PCA reaction, compared compounds: Comparative Test Example 1, Table 5, compared compounds of EP-A-0598117
Experimental: This experimental animal model is caused by immediate type allergic reaction, namely, antigen-antibody reaction. In the following, the method of this pharmacological test will be explained.
Method: Male wistar rats (9 weeks old) were intradermally administered 0.05 ml of anti-serum against trinitrophenylated ascaris (TNP-As) into two sites on the shaved dorsal skin. 48 hours later, 3-glycosyloxybenzopyran derivatives and 4-glycosyloxybenzopyran derivatives (test compounds) suspended in 0.5% sodium carboxymethylcellulose (CMCNa) were given orally at a dose of 100 mg/kg to the animals. 1 hour after administration of Test compounds, the animals were induced anaphylaxis by injection of saline (1 ml) dissolving 5 mg of Evans Blue and 1 mg of TNP-As into the tail vein of the animals. 30 minutes after induction of anaphylaxis, animals were anesthetized by ether and killed by bleeding, and were flayed dorsal skin. The leakage of dye was assessed by measuring the diameter (mean of shortest and longest diameter) of the blue spot on the inside surface of dorsal skin. As vehicle control group, only 0.5% CMCNa solution was administered orally, and as positive control group, Tranilast suspended in 0.5% CMCNa were administered orally at a dose of 100 mg/kg to the animals with the same method as the test compounds groups. Each experimental group consisted of 5 rats. [formula] In equation 1: A: leakage of dye in vehicle control group
B: leakage of dye in test compound group or in positive control group
The anti-allergic activity of the compounds of the present invention were compared with that of analogous compounds which were published in the Patent (EP-A-0598117) by PCA reaction. This pharmacological test was performed according to the method described in Test Example 1.

[2] = test system: contact dermatitis induced by picryl chloride; experiment: Effect on contact dermatitis induced by picryl chloride in mice (delayed type hypersensitization); assay type: in vivo; details: for inhibition in vivo at 100 mg/kg: ear thickness 24 hours after challenge, Table 6
Experimental: The delayed type hypersensitization is inhibited by steroid, but can not be effected by known anti-allergic agents. In the following, the method of the pharmacological test will be explained.
Method: Mice, shaved their abdominal skin on previous day, were immunized by applying 0.1 ml of acetone containing 7 mg of picryl chloride to the skin of the abdomen. 7 days after immunization, the thickness of the ear was measured with a dial thickness gauge, then mice were challenged by painting 5 μl of 1% picryl chloride olive oil solution to each side skin of left ear. 24 hours after challenge, the thickness of the left ear was measured again and the increase (%) of thickness was calculated according to equation 2. The compounds of the present invention (test compounds) suspended in 0.5% CMCNa were forcibly administered orally at a dose of 100 mg/kg at 1 hour before and 16 hours after challenge. As vehicle control group, only 0.5% CMCNa solution were administered orally, and as positive control group, Prednisolone, steroid hormone, and Tranilast were administered orally at the doses of 10 mg/kg and 100 mg/kg, respectively.
Increase (%)=(A-B)/B×100 (Equation 2)
A: thickness of the ear at 24 hours after challenge
B: thickness of the ear before challenge
Inhibition(%)=(C-D)/C×100 (equation 3)
C: The increase (%) in vehicle control group
D: The increase (%) in test compounds group or positive control group

[3] = test system: airway resistance in experimental asthma model; experiment: Effect on experimental asthma model in guinea pigs; assay type: in vivo, guinea pigs (Male hadley); details: Cavia porcellus; 100 mg/kg oral, OVA challenge, guinea pigs; Table 7
Experimental: The asthma is typical allergic disease and we carried out this pharmacological test by well known experimental asthma model in guinea pigs in order to confirm that the compounds of the present invention suppress the asthma. In the following, the method of the pharmacological test will be explained.
Method: Male hadley guinea pigs were immunized by intraperitoneal injection of saline (1 ml) containing 5 mg of ovalbumine (OVA) three times at interval of one week. 2 weeks after final immunization, the animals were challenged by inhalation of 1% OVA-saline solution for 1 minute and then the airway resistance of the animals were measured for 30 minutes with PULMOS-1 (Medical Interface Project Station Inc.) after the inhalation. The compounds of the present invention (test compounds) suspended in 0.5% CMCNa were given orally at a dose of 100 mg/kg. As positive control group, Disodium Cromoglicate (DSCG), well known anti-allergic agent, in saline were injected at a dose of 20 mg/kg into the vein of the animals. As vehicle control group, only 0.5% CMCNa solution were given orally. The inhibition (%) of the airway resistance in vehicle control group was calculated according to equation 5 and the result was shown in Table 7. Each experimental group consisted of 5 guinea pigs. [formula] In equation 5: A: Maximum airway resistance in vehicle control group
B: Maximum airway resistance in test compounds group or positive control group

[4] = Mus musculus, 100 mg/kg oral, read-out: Inhibition (%) against the increase of ear thickness

SMILES | inhibition in vivo at 100 mg/kg [1] [%] | inhibition in vivo at 100 mg/kg [2, 4] [%] | inhibition in vivo at 100 mg/kg [3] [%] | Inhibition (%) of PCA reaction, compared compounds [1] [%] | inhibition in vivo at 10 mg/kg ([2]; Mus musculus, po, 24 h, read-out: Inhibition (%) against the increase of ear thickness) [%] | inhibition of delayed type hypersensitization ([2]; 100 mg/kg oral, in words)
CCCCCCCCCCCCOc1ccc2c(O[C@@H]3O[C@H](CO)[C@@H](O)[C@H](O)[C@H]3O)c(OC(C)=O)c(=O)oc2c1 [compound 75] | 43.3 | 46.2 | 45.2 |  |  | 
CC(=O)Oc1ccc2c(O[C@H]3O[C@H](CO)[C@@H](O)[C@H](O)[C@@H]3O)c(O)c(=O)oc2c1 [compound 106] | 42.2 | 40.1 | 46.2 |  |  | 
CCCCCCOc1ccc2c(O)c(O[C@@H]3O[C@H](CO)[C@H](O)[C@H](O)[C@H]3O)c(=O)oc2c1 [compound 41] | 60.8 | 65.7 | 77.7 |  |  | 
O=c1oc2cc(OCc3ccccc3)ccc2c(O)c1O[C@@H]1O[C@H](CO)[C@@H](O)[C@H](O)[C@H]1O [compound 22] | 53.8 | 53.4 | 59.4 |  |  | 
COc1ccc2c(O[C@H]3O[C@H](CO)[C@@H](O)[C@H](O)[C@@H]3O)c(O)c(=O)oc2c1 [compound 78] | 46.2 | 43.1 | 50.8 |  |  | 
O=c1oc2cc(OCc3ccccc3)ccc2c(O)c1O[C@@H]1O[C@H](CO)[C@H](O)[C@H](O)[C@H]1O [compound 40] | 40.5 | 41.3 | 46.2 |  |  | 
COc1ccc2c(O)c(O[C@@H]3O[C@H](CO)[C@@H](O)[C@H](O)[C@H]3O)c(=O)oc2c1 [compound 5, 7-methoxy-4-hydroxy-3-(β-D-glucopyranosyloxy)-2H-1-benzopyran-2-one] | 48.7 | 51.2 | 62 |  |  | 
CCCCCCCCCCOc1ccc2c(O[C@H]3O[C@H](CO)[C@@H](O)[C@H](O)[C@@H]3O)c(O)c(=O)oc2c1 [compound 81] | 48.3 | 50.8 | 63.1 |  |  | 
CC(=O)Oc1ccc2c(O)c(O[C@H]3O[C@H](CO)[C@@H](O)[C@H](O)[C@@H]3O)c(=O)oc2c1 [compound 45] | 46.3 | 46.3 | 46.5 |  |  | 
CCC=CCCOc1ccc2c(O)c(O[C@@H]3O[C@H](CO)[C@@H](O)[C@H](O)[C@H]3O)c(=O)oc2c1 [compound 19] | 56.8 | 57.4 | 73.1 |  |  | 
CC(C)=CCC/C(C)=C/COc1ccc2c(O)c(O[C@@H]3O[C@H](CO)[C@H](O)[C@H](O)[C@H]3O)c(=O)oc2c1 [compound 38] | 59.6 | 57.6 | 73.7 |  |  | 
O=c1oc2cc(O)ccc2c(O[C@@H]2O[C@H](CO)[C@@H](O)[C@H](O)[C@H]2O)c1O [compound 59, 3,7-dihydroxy-4-(β-D-glucopyranosyloxy)-2H-1-benzopyran-2-one] | 46.1 | 45.6 | 49.1 |  |  | 
COc1ccc2c(O[C@@H]3O[C@H](CO)[C@H](O)[C@H](O)[C@H]3O)c(OC(=O)c3ccccc3)c(=O)oc2c1 [compound 101] | 45.2 | 47.2 | 56.2 |  |  | 
CCCCCCCCCCCCOc1ccc2c(O[C@@H]3O[C@H](CO)[C@H](O)[C@H](O)[C@H]3O)c(OC(C)=O)c(=O)oc2c1 [compound 103] | 51.1 | 48.3 | 65.3 |  |  | 
CC(C)Oc1ccc2c(O)c(O[C@@H]3O[C@H](CO)[C@H](O)[C@H](O)[C@H]3O)c(=O)oc2c1 [compound 36] | 56.7 | 58.2 | 66.4 |  |  | 
COc1ccc2c(O[C@@H]3O[C@H](CO)[C@@H](O)[C@H](O)[C@H]3O)c(OC(=O)c3ccccc3)c(=O)oc2c1 [compound 73] | 45.8 | 45.8 | 44.7 |  |  | 
CCCCOc1ccc2c(O[C@H]3O[C@H](CO)[C@@H](O)[C@H](O)[C@@H]3O)c(OC(C)=O)c(=O)oc2c1 [compound 88] | 45.8 | 40.2 | 43.5 |  |  | 
COc1ccc2c(OCc3ccccc3)c(O[C@@H]3O[C@H](COC(C)=O)[C@@H](OC(C)=O)[C@H](OC(C)=O)[C@H]3OC(C)=O)c(=O)oc2c1 [compound 3, 7-methoxy-4-benzyloxy-3-(tetra-O-acetyl-β-D-glucopyranosyloxy)-2H-1-benzopyran-2-one] | 43.5 | 40.5 | 40 |  |  | 
O=c1oc2cc(O)ccc2c(O)c1O[C@H]1O[C@H](CO)[C@@H](O)[C@H](O)[C@@H]1O [compound 23] | 47.8 | 45 | 46.6 |  |  | 
CCCCOc1ccc2c(O[C@@H]3O[C@H](CO)[C@@H](O)[C@H](O)[C@H]3O)c(O)c(=O)oc2c1 [compound 63, 7-butoxy-3-hydroxy-4-(β-D-glucopyranosyloxy)-2H-1-benzopyran-2-one] | 57.4 | 57.1 | 64.7 |  |  | 
CCC=CCCOc1ccc2c(O[C@@H]3O[C@H](CO)[C@H](O)[C@H](O)[C@H]3O)c(O)c(=O)oc2c1 [compound 98] | 60.2 | 61.2 | 72.8 |  |  | 
CCCCCCCCOc1ccc2c(O)c(OC)c(=O)oc2c1 [Compared compound 2, 3-methoxy-4-hydroxy-7-octyloxy-2H-1-benzopyran-2-one, reference compound] |  |  |  | 32.8 |  | 
C[C@]12C=CC(=O)C=C1CC[C@@H]1[C@@H]2[C@@H](O)C[C@@]2(C)[C@H]1CC[C@]2(O)C(=O)CO [Prednisolone, reference compound] |  |  |  |  | 63.5 | 
COc1ccc2c(O)c(OC)c(=O)oc2c1 [Compared compound 1, 4-hydroxy-3,7-dimethoxy-2H-1-benzopyran-2-one, reference compound] |  |  |  | 28.9 |  | 
COc1ccc2c(OC)c(O)c(=O)oc2c1 [Compared compound 3, 3-hydroxy-4,7-dimethoxy-2H-1-benzopyran-2-one, reference compound] |  |  |  | 30.6 |  | 
COc1ccc(/C=C/C(=O)Nc2ccccc2C(=O)O)cc1OC [Tranilast, reference compound] | 56.2 | 11.5 |  |  |  | did not inhibit delayed type hypersensitization
CCCCCCCCCCOc1ccc2c(OC)c(O)c(=O)oc2c1 [Compared compound 4, 3-hydroxy-4-methoxy-7-decyloxy-2H-1-benzopyran-2-one, reference compound] |  |  |  | 26.4 |  | 
